From publication PMC10609013, “Solubility and Thermodynamic Analysis of Isotretinoin in Different (DMSO + Water) Mixtures” (Molecules, 2023)

Experiments:
[1] = Activity coefficients (γi) of ITN, Equation (4); type: physicochemical
From the text: Finally, the x^idl values for ITN were derived from Equation (2). Equation (4) was used to derive the γi values for ITN in numerous {DMSO (1) + H2O (2)} mixes including neat DMSO and H2O [56, 58]:(4) γi=x^idl/xe

[2] = Apparent thermodynamic analysis of ITN dissolution (van't Hoff and Gibbs equations); type: physicochemical
Description: At the mean harmonic temperature (Thm), all apparent thermodynamic parameters for ITN were determined. The Thm was determined using the reported equation [51, 56]. […] The “van’t Hoff and Gibbs equations” were used to calculate these parameters. The ΔsolH^0 values for ITN (3) in various {DMSO (1) + H2O (2)} mixtures were calculated using Equation (10) and Thm = 308 K [47, 62]:(10) ∂lnxe/∂1/T−1/ThmP=−∆solH^0/R
The “ΔsolH^0” for ITN was derived using the graphed “van’t Hoff” plots between the ln xe values of ITN and 1/T−1/Thm .
Additionally, at Thm = 308 K, the ΔsolG^0 for ITN (3) in binary {DMSO (1) + H2O (2)} mixes was calculated using the Krug et al. methodology via Equation (11):(11) ∆solG^0=−RThm×intercept where, the “van’t Hoff plots” shown in Figure 5 were used to determine the intercept values for ITN (3) in binary mixtures of DMSO (1) and H2O (2).
By Equation (12), the ΔsolS^0 for ITN (3) in numerous {DMSO (1) + H2O (2)} mixtures was derived:(12) ∆solS^0=∆solH^0−∆solG^0/Thm

[3] = DMSO mass fraction m = 0.0, Thm = 308 K
[4] = DMSO mass fraction m = 0.1, Thm = 308 K
[5] = DMSO mass fraction m = 0.2, Thm = 308 K
[6] = DMSO mass fraction m = 0.3, Thm = 308 K
[7] = DMSO mass fraction m = 0.4, Thm = 308 K
[8] = DMSO mass fraction m = 0.5, Thm = 308 K
[9] = DMSO mass fraction m = 0.6, Thm = 308 K
[10] = DMSO mass fraction m = 0.7, Thm = 308 K
[11] = DMSO mass fraction m = 0.8, Thm = 308 K
[12] = DMSO mass fraction m = 0.9, Thm = 308 K
[13] = DMSO mass fraction m = 1.0, Thm = 308 K

CC1=C(/C=C/C(C)=C/C=C/C(C)=C\C(=O)O)C(C)(C)CCC1 [ITN, isotretinoin]
γi activity coefficient ([1]; DMSO mass fraction m = 0.0, T = 298.2 K): 1,366,467
γi activity coefficient ([1]; DMSO mass fraction m = 0.0, T = 303.2 K): 972,627.0
γi activity coefficient ([1]; DMSO mass fraction m = 0.0, T = 308.2 K): 611,320.0
γi activity coefficient ([1]; DMSO mass fraction m = 0.0, T = 313.2 K): 441,076.0
γi activity coefficient ([1]; DMSO mass fraction m = 0.0, T = 318.2 K): 326,128.0
γi activity coefficient ([1]; DMSO mass fraction m = 0.1, T = 298.2 K): 384,000.0
γi activity coefficient ([1]; DMSO mass fraction m = 0.1, T = 303.2 K): 278,000.0
γi activity coefficient ([1]; DMSO mass fraction m = 0.1, T = 308.2 K): 187,000.0
γi activity coefficient ([1]; DMSO mass fraction m = 0.1, T = 313.2 K): 136,000.0
γi activity coefficient ([1]; DMSO mass fraction m = 0.1, T = 318.2 K): 106,000.0
γi activity coefficient ([1]; DMSO mass fraction m = 0.2, T = 298.2 K): 111,979.0
γi activity coefficient ([1]; DMSO mass fraction m = 0.2, T = 303.2 K): 83,952.80
γi activity coefficient ([1]; DMSO mass fraction m = 0.2, T = 308.2 K): 58,249.00
γi activity coefficient ([1]; DMSO mass fraction m = 0.2, T = 313.2 K): 43,099.10
γi activity coefficient ([1]; DMSO mass fraction m = 0.2, T = 318.2 K): 34,943.20
γi activity coefficient ([1]; DMSO mass fraction m = 0.3, T = 298.2 K): 31,441.80
γi activity coefficient ([1]; DMSO mass fraction m = 0.3, T = 303.2 K): 24,298.30
γi activity coefficient ([1]; DMSO mass fraction m = 0.3, T = 308.2 K): 17,811.50
γi activity coefficient ([1]; DMSO mass fraction m = 0.3, T = 313.2 K): 13,802.30
γi activity coefficient ([1]; DMSO mass fraction m = 0.3, T = 318.2 K): 11,402.70
γi activity coefficient ([1]; DMSO mass fraction m = 0.4, T = 298.2 K): 9161.740
γi activity coefficient ([1]; DMSO mass fraction m = 0.4, T = 303.2 K): 7310.360
γi activity coefficient ([1]; DMSO mass fraction m = 0.4, T = 308.2 K): 5568.540
γi activity coefficient ([1]; DMSO mass fraction m = 0.4, T = 313.2 K): 4372.740
γi activity coefficient ([1]; DMSO mass fraction m = 0.4, T = 318.2 K): 3713.1570
γi activity coefficient ([1]; DMSO mass fraction m = 0.5, T = 298.2 K): 2602.340
γi activity coefficient ([1]; DMSO mass fraction m = 0.5, T = 303.2 K): 2166.250
γi activity coefficient ([1]; DMSO mass fraction m = 0.5, T = 308.2 K): 1703.980
γi activity coefficient ([1]; DMSO mass fraction m = 0.5, T = 313.2 K): 1429.250
γi activity coefficient ([1]; DMSO mass fraction m = 0.5, T = 318.2 K): 1233.060
γi activity coefficient ([1]; DMSO mass fraction m = 0.6, T = 298.2 K): 751.8650
γi activity coefficient ([1]; DMSO mass fraction m = 0.6, T = 303.2 K): 644.3650
γi activity coefficient ([1]; DMSO mass fraction m = 0.6, T = 308.2 K): 534.7140
γi activity coefficient ([1]; DMSO mass fraction m = 0.6, T = 313.2 K): 438.6560
γi activity coefficient ([1]; DMSO mass fraction m = 0.6, T = 318.2 K): 399.5110
γi activity coefficient ([1]; DMSO mass fraction m = 0.7, T = 298.2 K): 211.8050
γi activity coefficient ([1]; DMSO mass fraction m = 0.7, T = 303.2 K): 189.9250
γi activity coefficient ([1]; DMSO mass fraction m = 0.7, T = 308.2 K): 164.4500
γi activity coefficient ([1]; DMSO mass fraction m = 0.7, T = 313.2 K): 146.1890
γi activity coefficient ([1]; DMSO mass fraction m = 0.7, T = 318.2 K): 133.4190
γi activity coefficient ([1]; DMSO mass fraction m = 0.8, T = 298.2 K): 61.49
γi activity coefficient ([1]; DMSO mass fraction m = 0.8, T = 303.2 K): 56.72
γi activity coefficient ([1]; DMSO mass fraction m = 0.8, T = 308.2 K): 51.11
γi activity coefficient ([1]; DMSO mass fraction m = 0.8, T = 313.2 K): 46.46
γi activity coefficient ([1]; DMSO mass fraction m = 0.8, T = 318.2 K): 42.45
γi activity coefficient ([1]; DMSO mass fraction m = 0.9, T = 298.2 K): 17.6
γi activity coefficient ([1]; DMSO mass fraction m = 0.9, T = 303.2 K): 16.68
γi activity coefficient ([1]; DMSO mass fraction m = 0.9, T = 308.2 K): 16.02
γi activity coefficient ([1]; DMSO mass fraction m = 0.9, T = 313.2 K): 14.84
γi activity coefficient ([1]; DMSO mass fraction m = 0.9, T = 318.2 K): 14.42
γi activity coefficient ([1]; DMSO mass fraction m = 1.0, T = 298.2 K): 5.057
γi activity coefficient ([1]; DMSO mass fraction m = 1.0, T = 303.2 K): 4.988
γi activity coefficient ([1]; DMSO mass fraction m = 1.0, T = 308.2 K): 4.919
γi activity coefficient ([1]; DMSO mass fraction m = 1.0, T = 313.2 K): 4.829
γi activity coefficient ([1]; DMSO mass fraction m = 1.0, T = 318.2 K): 4.791
ΔsolG^0 apparent standard Gibbs energy [2, 3]: 36.27 (0.43) kJ mol^−1
ΔsolH^0 apparent standard enthalpy [2, 3]: 63.00 (0.76) kJ mol^−1
ΔsolS^0 apparent standard entropy [2, 3]: 86.78 (1.12) J mol^−1 K^−1
ΔsolG^0 apparent standard Gibbs energy [2, 4]: 33.20 (0.41) kJ mol^−1
ΔsolH^0 apparent standard enthalpy [2, 4]: 57.15 (0.67) kJ mol^−1
ΔsolS^0 apparent standard entropy [2, 4]: 77.75 (1.03) J mol^−1 K^−1
ΔsolG^0 apparent standard Gibbs energy [2, 5]: 30.19 (0.39) kJ mol^−1
ΔsolH^0 apparent standard enthalpy [2, 5]: 52.98 (0.63) kJ mol^−1
ΔsolS^0 apparent standard entropy [2, 5]: 73.99 (1.00) J mol^−1 K^−1
ΔsolG^0 apparent standard Gibbs energy [2, 6]: 27.15 (0.37) kJ mol^−1
ΔsolH^0 apparent standard enthalpy [2, 6]: 46.19 (0.52) kJ mol^−1
ΔsolS^0 apparent standard entropy [2, 6]: 61.83 (0.98) J mol^−1 K^−1
ΔsolG^0 apparent standard Gibbs energy [2, 7]: 24.14 (0.36) kJ mol^−1
ΔsolH^0 apparent standard enthalpy [2, 7]: 41.89 (0.48) kJ mol^−1
ΔsolS^0 apparent standard entropy [2, 7]: 57.59 (0.92) J mol^−1 K^−1
ΔsolG^0 apparent standard Gibbs energy [2, 8]: 21.13 (0.30) kJ mol^−1
ΔsolH^0 apparent standard enthalpy [2, 8]: 35.40 (0.42) kJ mol^−1
ΔsolS^0 apparent standard entropy [2, 8]: 46.31 (0.81) J mol^−1 K^−1
ΔsolG^0 apparent standard Gibbs energy [2, 9]: 18.10 (0.26) kJ mol^−1
ΔsolH^0 apparent standard enthalpy [2, 9]: 31.28 (0.40) kJ mol^−1
ΔsolS^0 apparent standard entropy [2, 9]: 42.78 (0.74) J mol^−1 K^−1
ΔsolG^0 apparent standard Gibbs energy [2, 10]: 15.10 (0.24) kJ mol^−1
ΔsolH^0 apparent standard enthalpy [2, 10]: 23.95 (0.32) kJ mol^−1
ΔsolS^0 apparent standard entropy [2, 10]: 28.74 (0.56) J mol^−1 K^−1
ΔsolG^0 apparent standard Gibbs energy [2, 11]: 12.07 (0.20) kJ mol^−1
ΔsolH^0 apparent standard enthalpy [2, 11]: 20.05 (0.28) kJ mol^−1
ΔsolS^0 apparent standard entropy [2, 11]: 25.90 (0.48) J mol^−1 K^−1
ΔsolG^0 apparent standard Gibbs energy [2, 12]: 9.078 (0.14) kJ mol^−1
ΔsolH^0 apparent standard enthalpy [2, 12]: 13.35 (0.22) kJ mol^−1
ΔsolS^0 apparent standard entropy [2, 12]: 13.87 (0.23) J mol^−1 K^−1
ΔsolG^0 apparent standard Gibbs energy [2, 13]: 6.077 (0.09) kJ mol^−1
ΔsolH^0 apparent standard enthalpy [2, 13]: 7.430 (0.10) kJ mol^−1
ΔsolS^0 apparent standard entropy [2, 13]: 4.392 (0.10) J mol^−1 K^−1
nature of dissolution ([2]; all {DMSO (1) + H2O (2)} mixes, including neat DMSO and H2O): endothermic and entropy-driven
